Experimental data from US10188634B2, “3-(3H-imidazo[4,5-C]pyridin-2-yl)-1 H-pyrazolo[4,3-B]pyridines and therapeutic uses thereof” (Samumed, LLC, priority 2015, dated 2019).

Legend:
Type in all cases: cell-based
[1] = tested on: LL29 cells (primary human fibroblasts derived from IPF patients) treated with TGF-β1, α-smooth muscle actin; assay: Inhibition of the fibrotic process: αSMA staining in TGF-β1 treated primary human fibroblasts from IPF patients (LL29 cells); details: Fibroblast, 96 h; for EC50: LL29 cells treated with TGF-β1 (20 ng/mL), 4 days; for inhibition at 10 µM: LL29 cells treated with TGF-β1, 4 days, read-out: percent inhibition in brackets (given for EC50 >10 μM)
Text: Representative compounds were screened using primary human fibroblasts (derived from IPF patients) treated with TGF-β1 to determine their ability to inhibit the fibrotic process.
Human Fibroblast Cell Culture: Primary human fibroblasts derived from IPF patients (LL29 cells) [^1Xiaoqiu Liu, et.al., “Fibrotic Lung Fibroblasts Show Blunted Inhibition by cAMP Due to Deficient cAMP Response Element-Binding Protein Phosphorylation”, Journal of Pharmacology and Experimental Therapeutics (2005), 315(2), 678-687; ^2Watts, K. L., et.al., “RhoA signaling modulates cyclin D1 expression in human lung fibroblasts; implications for idiopathic pulmonary fibrosis”, Respiratory Research (2006), 7(1), 88] were obtained from American Type Culture Collection (ATCC) and expanded in F12 medium supplemented with 15% Fetal Bovine Serum and Penicillin/Streptomycin.
Compound Screening: Each compound was dissolved in DMSO as a 10 mM stock and used to prepare compound source plates. […] LL29 cells are plated at 1,500 cells/well in 80 μL/well F12 medium supplemented with 1% Fetal Bovine Serum. One hour after addition of the cells, TGF-β1 (Peprotech; 20 ng/mL) was added to the plates to induce fibrosis (ref. 1 and 2 above). Wells treated with TGF-β1 and containing DMSO were used as controls. Cells were incubated at 37° C. and 5% CO2 for 4 days. Following incubation for 4 days, SYTOX green nucleic acid stain (Life Technologies [Thermo Fisher Scientific]) was added to the wells at a final concentration of 1 μM and incubated at room temperature for 30 min. Cells were then fixed using 4% formaldehyde (Electron Microscopy Sciences), washed 3 times with PBS followed by blocking and permeabilization using 3% Bovine Serum Albumin (BSA; Sigma) and 0.3% Triton X-100 (Sigma) in PBS. Cells were then stained with antibody specific to α-smooth muscle actin (αSMA; Abcam) (ref. 1 and 2 above) in 3% Bovine Serum Albumin (BSA; Sigma) and 0.3% Triton X-100 (Sigma) in PBS, and incubated overnight at 4° C. Cells were then washed 3 times with PBS, followed by incubation with Alexa Flor-647 conjugated secondary antibody (Life Technologies [Thermo Fisher Scientific]) and DAPI at room temperature for 1 hour. Cells were then washed 3 times with PBS and plates were sealed for imaging. αSMA staining was imaged by excitation at 630 nm and emission at 665 nm and quantified using the Compartmental Analysis program on the CellInsight CX5 (Thermo Scientific). Dead or apoptotic cells were excluded from analysis based on positive SYTOX green staining. % of total cells positive for αSMA were counted in each well and normalized to the average of 11 wells treated with TGF-β1 on the same plate using Dotmatics' Studies Software. The normalized averages (fold change over untreated) of 3 replicate wells for each compound concentration were used to create dose-responses curves and EC50 values were calculated using non-linear regression curve fit in the Dotmatics' Studies Software. For EC50 of >10 μM, the percent inhibition at 10 μM is provided.

SW480 colon cancer cells = assay: Cell viability assay (CellTiter-Blue) in SW480 colon cancer cells; details: Homo sapiens, 96 h; for inhibition at 10 µM: four days, CellTiter-Blue, read-out: percent inhibition at 10 μM (given for EC50 of >10 μM); for EC50: four days incubation, CellTiter-Blue cell viability
Experimental: Representative compounds were screened using the following assay procedure to assess the effect on cell viability as described below.
Each compound was dissolved in DMSO as a 10 mM stock and used to prepare compound source plates. Serial dilution (1:3, 8-point dose-response curves from 10 μM to 0.004 μM) and compound transfer was performed using the ECHO 550 (Labcyte, Sunnyvale, Calif.) into 96-well clear bottom, black-walled plates (Corning-Costar).
Approximately 2×10^3 SW480 colon cancer cells were seeded into each well and allowed to incubate in the presence or absence of compound for four days at 37° C./5% CO2. Eight replicates of DMSO-treated cells served as controls and cells treated with compound were performed in duplicate.
After incubation, 20 μL of CellTiter-Blue (Promega) was added to each well allowed to incubate for approximately 3 hours. This reagent was a buffered solution which contains resazurin, metabolically active cells were able to reduce rezarurin (blue) into resorufin (pink) which was highly fluorescent. This measured fluorescence was used as a readout for cell viability.
After incubation, the plates were read at Ex 560 nm Em 590 nm (Cytation 3, BioTek). Dose-response curves were generated and EC50 concentration values were calculated using non-linear regression curve fit in the GraphPad Prism (San Diego, Calif.) or Dotmatics' Studies Software (Bishops Stortford, UK). For EC50 of >10 μM, the percent inhibition at 10 μM is provided.

IL-6 in THP-1 cells = assay: Inhibition of IL-6 in LPS-stimulated THP-1 human monocyte cells (HTRF); details: IL-6 HTRF; for EC50: 500 ng/mL LPS, 22 hours; for inhibition at 10 µM: LPS, read-out: percent inhibition in brackets (given for EC50 >10 μM)
Experimental: Human Monocyte Cell Culture: Human monocyte cell line (THP-1 cells; Catalog # TIB-202, ATCC, Manassas, Va.) were cultured in Roswell Park Memorial Institute (RPMI) 1640 Medium (Catalog #21870-100, Buffalo, N.Y.) with 1% L-glutamine, 1% HEPES, 1% Sodium Pyruvate, 2% Sodium Bicarbonate supplemented with 100 units/mL penicillin, 50 μg/mL streptomycin, 2-mercaptoethanol (0.05 mM) [basal medium] and 10% fetal bovine serum (Catalog #16140089, Life Technologies, Carlsbad, Calif.) at 37° C. and 5% CO2.
Compound Screening: THP-1 cells were cultured in basal media with 1% FBS for 24 hours before the start of the assay. Each compound was dissolved in DMSO as a 10 mM stock and used to prepare compound source plates. Serial dilution (1:3, 10-point dose-response curves starting from 10 μM) and compound transfer was performed using the ECHO 550 (Labcyte, Sunnyvale, Calif.) into 384-well white low volume assay plates (Greiner Bio-One) with appropriate DMSO backfill for a final DMSO concentration of 0.1%. THP-1 cells were plated at 5000 cells/well in the 384-well plates and incubated at 37° C. for 2 h. 500 ng/mL of LPS was added after 2 hours and cells were incubated for another 22 hours at 37° C. Plates were spun in a centrifuge for 1 minute at […] and a mixture of anti-IL6 XL665, and anti-IL6 Cryptate diluted in reconstitution buffer (Cisbio Inc.) was added to each well. Following incubation for 3 hrs at room temperature, Homogeneous Time-Resolved Fluorescence (HTRF) was measured using the Envision (Perkin Elmer) at 665 nm and […]. The ratio of fluorescence at 665 nm to 620 nm was used as a readout for IL6 quantification. All samples were processed in duplicate. Readings were normalized to DMSO treated cells and normalized activities were utilized for EC50 calculations using the dose-response log (inhibitor) vs. response -variable slope (four parameters) nonlinear regression feature available in GraphPad Prism 5.0 (or Dotmatics). For EC50 of >10 μM, the percent inhibition at 10 μM is provided.

Compound | EC50 [1] [µM] | inhibition at 10 µM [1] [%] | inhibition at 10 µM (SW480 colon cancer cells) [%] | EC50 (SW480 colon cancer cells) [µM] | EC50 (IL-6 in THP-1 cells) [µM] | inhibition at 10 µM (IL-6 in THP-1 cells) [%]
CCC(=O)Nc1cncc(-c2ccc3[nH]nc(-c4nc5c(-c6cccc(F)c6)cncc5[nH]4)c3n2)c1 [Compound 1, N-(5-(3-(7-(3-Fluorophenyl)-3H-imidazo[4,5-c]pyridin-2-yl)-1H-pyrazolo[4,3-b]pyridin-5-yl)pyridin-3-yl)propionamide] | > 10 | 0 | 0 | > 10 | > 10 | 25.8
CC(C)CC(=O)Nc1cncc(-c2ccc3[nH]nc(-c4nc5c(-c6cccc(F)c6)cncc5[nH]4)c3n2)c1 [Compound 2, N-(5-(3-(7-(3-Fluorophenyl)-3H-imidazo[4,5-c]pyridin-2-yl)-1H-pyrazolo[4,3-b]pyridin-5-yl)pyridin-3-yl)-3-methylbutanamide] | 4.09 |  | 0 | > 10 | > 10 | 25.4
Fc1cccc(-c2cncc3[nH]c(-c4n[nH]c5ccc(-c6ccncc6)nc45)nc23)c1 [Compound 18, 3-(7-(3-Fluorophenyl)-3H-imidazo[4,5-c]pyridin-2-yl)-5-(pyridin-4-yl)-1H-pyrazolo[4,3-b]pyridine] | > 10 | 0 | 6.5 | > 10 | > 10 | 8.6
O=C(Nc1cncc(-c2ccc3[nH]nc(-c4nc5c(-c6ccc(F)cc6)cncc5[nH]4)c3n2)c1)C1CCC1 [Compound 49, N-(5-(3-(7-(4-Fluorophenyl)-3H-imidazo[4,5-c]pyridin-2-yl)-1H-pyrazolo[4,3-b]pyridin-5-yl)pyridin-3-yl)cyclobutanecarboxamide] | 3.23 |  |  | 8.68 | > 10 | 37.7
Fc1ccc(-c2cncc3[nH]c(-c4n[nH]c5ccc(-c6cncnc6)nc45)nc23)cc1 [Compound 55, 3-(7-(4-Fluorophenyl)-3H-imidazo[4,5-c]pyridin-2-yl)-5-(pyrimidin-5-yl)-1H-pyrazolo[4,3-b]pyridine] | > 10 | 21.4 | 0 | > 10 | > 10 | 13.4
Nc1cncc(-c2ccc3[nH]nc(-c4nc5c(-c6ccccc6F)cncc5[nH]4)c3n2)c1 [Compound 59, 5-(3-(7-(2-Fluorophenyl)-3H-imidazo[4,5-c]pyridin-2-yl)-1H-pyrazolo[4,3-b]pyridin-5-yl)pyridin-3-amine] | 3.4 |  | 0 | > 10 | 0.094 | 
CC(C)C(=O)Nc1cncc(-c2ccc3[nH]nc(-c4nc5c(-c6ccccc6F)cncc5[nH]4)c3n2)c1 [Compound 65, N-(5-(3-(7-(2-fluorophenyl)-3H-imidazo[4,5-c]pyridin-2-yl)-1H-pyrazolo[4,3-b]pyridin-5-yl)pyridin-3-yl)isobutyramide] | > 10 | 1.9 | 0 | > 10 | > 10 | 28.2
CC(C)(C)CC(=O)Nc1cncc(-c2ccc3[nH]nc(-c4nc5c(-c6ccccc6F)cncc5[nH]4)c3n2)c1 [Compound 72, N-(5-(3-(7-(2-fluorophenyl)-3H-imidazo[4,5-c]pyridin-2-yl)-1H-pyrazolo[4,3-b]pyridin-5-yl)pyridin-3-yl)-3,3-dimethylbutanamide] | > 10 | 0 | 9.8 | > 10 | > 10 | 29.8
O=C(Nc1cncc(-c2ccc3[nH]nc(-c4nc5c(-c6ccccc6F)cncc5[nH]4)c3n2)c1)C1CCCC1 [Compound 78, N-(5-(3-(7-(2-Fluorophenyl)-3H-imidazo[4,5-c]pyridin-2-yl)-1H-pyrazolo[4,3-b]pyridin-5-yl)pyridin-3-yl)cyclopentanecarboxamide] | 9.08 |  |  | 8.9 | > 10 | 40.4
c1cncc(-c2ccc3[nH]nc(-c4nc5c(-c6cccnc6)cncc5[nH]4)c3n2)c1 [Compound 88, 5-(Pyridin-3-yl)-3-(7-(pyridin-3-yl)-3H-imidazo[4,5-c]pyridin-2-yl)-1H-pyrazolo[4,3-b]pyridine] | 4.96 |  | 7.1 | > 10 | > 10 | 13.9
CC(C)C(=O)Nc1cncc(-c2ccc3[nH]nc(-c4nc5c(-c6cccnc6)cncc5[nH]4)c3n2)c1 [Compound 93, N-(5-(3-(7-(Pyridin-3-yl)-3H-imidazo[4,5-c]pyridin-2-yl)-1H-pyrazolo[4,3-b]pyridin-5-yl)pyridin-3-yl)isobutyramide] | > 10 | 12.2 | 6.3 | > 10 | > 10 | 18
c1ccc(CNCc2cncc(-c3ccc4[nH]nc(-c5nc6c(-c7cccnc7)cncc6[nH]5)c4n3)c2)cc1 [Compound 108, N-Benzyl-1-(5-(3-(7-(pyridin-3-yl)-3H-imidazo[4,5-c]pyridin-2-yl)-1H-pyrazolo[4,3-b]pyridin-5-yl)pyridin-3-yl)methanamine] | > 10 | 0 | 0 | > 10 | 0.03 | 
